In ChEMBL document CHEMBL3751838, “Cytotoxic Activity of Salicylic Acid-Containing Drug Models with Ionic and Covalent Binding” (ACS Med Chem Lett, 2015):

Experiments:
[1] = Cytotoxicity against human Caco2 cells after 24 hrs by MTT assay; type: functional, cell-based, Caco-2
cells = type: ADME, cell-based; conditions: Homo sapiens, 3215LS, 24 h
Description: Cytotoxicity against human 3215LS cells after 24 hrs by MTT assay

[2] = Aqueous solubility of compound at room temperature; type: physicochemical; conditions: water

SMILES	IC50 ([1]; caco-2)	IC50 ([1]; Homo sapiens, Caco-2, 24 h)	also measured
CCCCn1cc[n+](C)c1 [listing 1 of 3 here]	18.8 mM	–	–
CCCCCCn1cc[n+](C)c1 [listing 1 of 2 here]	6.21 mM	–	–
CCn1cc[n+](C)c1 [listing 1 of 2 here]	32.1 mM	–	–
CCCCn1cc[n+](C)c1 [listing 2 of 3 here]	11.2 mM	–	–
CCCCCCn1cc[n+](C)c1 [listing 2 of 2 here]	1.96 mM	–	–
C[n+]1ccn(CCCOC(=O)c2ccccc2O)c1	–	2.55 mM	IC50 (cells): 3.19 mM
C[n+]1ccn(CCOC(=O)c2ccccc2O)c1.[Cl-]	3.82 mM	–	solubility [2]: 267 mg/mL
COC(=O)[C@H](C)N	–	6.24 mM	IC50 (cells): 2.63 mM
C[n+]1ccn(CCOC(=O)c2ccccc2O)c1	–	4.77 mM	–
CCn1cc[n+](C)c1 [listing 2 of 2 here]	5.97 mM	–	–
CCCCn1cc[n+](C)c1 [listing 3 of 3 here]	4.34 mM	–	–
O=C(O)c1ccccc1O [SALICYLIC ACID]	–	5 mM	IC50 (cells): 1.14 mM
